Source: PubChem BioAssay (NCI)
“And” between values parts separate entries of the source, which are not always exact repeats. Equal entries are not always repeated.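 In this assay, cells in 96-well plates receive the compound at five concentrations for 48 hours. Endpoints are linearly interpolated between the surrounding concentrations. GI50 = concentration required for 50% inhibition of growth. TGI denotes the concentration required for complete inhibition of growth.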

Assays:
Test in all cases: DTP human tumour cell line panel, 48 h
SF-539 CNS = tested on: SF-539 CNS
KM12 colon = tested on: KM12 colon
HCT-15 colon = tested on: HCT-15 colon
MCF7 breast = tested on: MCF7 breast
MALME-3M melanoma = tested on: MALME-3M melanoma
SW-620 colon = tested on: SW-620 colon
MOLT-4 leukemia = tested on: MOLT-4 leukemia
COLO 205 colon = tested on: COLO 205 colon
OVCAR-5 ovarian = tested on: OVCAR-5 ovarian
HCC-2998 colon = tested on: HCC-2998 colon

| Structure (SMILES) | TGI (SF-539 CNS) [µM] | TGI (KM12 colon) [µM] | TGI (HCT-15 colon) [µM] | TGI (MCF7 breast) [µM] | TGI (MALME-3M melanoma) [µM] | TGI (SW-620 colon) [µM] | TGI (MOLT-4 leukemia) | TGI (COLO 205 colon) [µM] | TGI (OVCAR-5 ovarian) [µM] | TGI (HCC-2998 colon) [µM] | GI50 (SF-539 CNS) [µM] | GI50 (KM12 colon) [µM] | GI50 (HCT-15 colon) [µM] | GI50 (MCF7 breast) [µM] | GI50 (MALME-3M melanoma) [µM] | GI50 (SW-620 colon) [µM] | GI50 (MOLT-4 leukemia) [µM] | GI50 (COLO 205 colon) [µM] | GI50 (OVCAR-5 ovarian) [µM] | GI50 (HCC-2998 colon) [µM] |
| --- | --- | --- | --- | --- | --- | --- | --- | --- | --- | --- | --- | --- | --- | --- | --- | --- | --- | --- | --- | --- |
| O=NN(CCCl)C(=O)NC1CCC(CC(=O)O)CC1 (stereo unspecified) | > 100 | > 100 | > 100 | > 100 | > 100 | > 100 | > 100 µM and 63.2 µM | > 100 | > 100 | > 100 |  |  |  |  |  |  |  |  |  |  |
| CCc1ccc(Nc2cc(C)c3ccc(O)cc3n2)cc1 | 19.1 | 21.2 | 12.8 | 22.4 | 19 | 20.2 | 19 µM | 24.3 | 21.3 | 17.4 | 5.74 | 6.01 | 2.95 | 4.75 | 6.19 | 5.48 | 3.6 | 10.4 | 8.49 | 5.18 |
| Cc1cc(Cl)nc(N(CCNc2ccnc3cc(Cl)ccc23)Cc2ccco2)n1 | 3.48 | 4.67 | 3.69 | 3.36 | 3.57 | 4.45 | 4.65 µM | 3.23 | 8.11 | 4.22 | 1.87 | 2.01 | 1.61 | 1.69 | 1.96 | 1.85 | 2.09 | 1.64 | 2.72 | 2.03 |
| CCCCS(=O)c1sc2nc(-c3cccs3)cc(-c3ccccc3)c2c1N (stereo unspecified) | > 100 | > 100 | > 100 | > 100 | 75.4 | > 100 | > 62.6 µM | 56.6 | > 88.9 | > 100 | 24.7 | 17.8 | 9.02 | 10.4 | 26.1 | 26 | 3.8 | 16.9 | 24.7 | 32 |
| CN(C)c1ccc(-c2cc(-c3ccc(Nc4nc(Nc5ccc(Cl)cc5)nc(Nc5ccc(Cl)cc5)n4)cc3)nc(N)c2C#N)cc1 | > 100 | > 100 | > 100 | 47.7 | > 100 | 22.7 | 20.5 µM | > 100 | > 100 | > 100 | 19.8 | 10.3 | 3.7 | 2.38 | 69.4 | 5.6 | 2.13 | 7.88 | > 100 | 99.4 |
| CCCCCCCCCCCC[C@@H](O)[C@H]1CC[C@H]([C@H](O)CC[C@H](O)[C@@H]2CC[C@@H](CCCCCCCC3=C[C@H](C)OC3=O)O2)O1 | > 50 | > 50 | > 50 | > 50 | > 50 | > 50 | > 50 µM | > 50 | > 50 | > 50 |  | 4.26 | 5.07 | 1.85 |  | 3.23 | 2.55 | 8.16 |  |  |
